Source: patent US4347319A, “Microbiological epoxidation process” (priority 1980, dated 1982)

How the values were obtained:
[1] = system: Methylosinus trichosporium OB3b (NRRL B-11,196); test: Oxidation by cell suspensions of methane-grown cells; assay type: cell-based; conditions: methane-grown cell-suspension, pH 7.0
[2] = system: cell fractions of Methylosinus trichosporium (OB3b, NRRL B-11,196); assay type: biochemical; conditions: S(80); propylene to propylene oxide, methane to methanol; 30° C.
Protocol: Cells were washed twice with 25 mM potassium phosphate buffer, pH 7.0 containing 5 mM MgCl2. Cells were suspended in the same buffer. The cell suspensions at 4° C. were disintegrated by a single passage through a French Pressure cell (15,000 lb./in.^2) and centrifuged at 5000×g. for 15 min. to remove unbroken bacteria. The supernatant solution (crude extract) was then centrifuged at 40,000×g. for 30 min., yielding particulate P(40) and soluble S(40) fractions. The S(40) fraction was subsequently centrifuged at 80,000×g. for 60 min., yielding particulate P(80) and soluble S(80) fractions. The particulate fractions [P(40) and P(80)] were suspended in 25 mM potassium phosphate buffer, pH 7.0, containing 5 mM MgCl2 and homogenized at 4° C.
(§1) The oxidation of methane and propylene by particulate [(P)40 and (P)80] fractions and soluble [S(80)] fraction was measured at 30° C. by estimating the production of methanol and propylene oxide, respectively. The reaction mixtures contained in […]: 150 mM potassium phosphate buffer, pH 7.0 containing 5 mM MgCl2 b, 0.6 ml; 10μ moles NADH, and cellular fraction.
(§2) Reaction mixtures were contained in 10 ml vials at 4° C. Vials were sealed with rubber caps. The gaseous phase in the vials was removed using vacuum and then was replaced with a gas mixture of methane or propylene and oxygen at a 1:1, v/v ratio. Oxidation of other gaseous n-alkanes and n-alkanes was examined as described above. For liquid substrates, 10 μl of substrate was used directly.
The products of epoxidation of n-alkenes and hydroxylation of n-alkanes were assayed by flame ionization gas chromatography using a stainless steel column (12'×1/8") packed with 10% Carbowax 20 M on 80/100 Chromosorb W and Porapak Q column. The column temperature was maintained isothermally at 120° C. The carrier gas flow rate was 30 ml/min. of helium. The various products were identified by retention time comparisons and co-chromatography with authentic standards.
Specific activities were expressed as μ moles of products formed per hour per mg. protein. Concentrations of protein in various fractions were determined by the method of Lowry et al., J. Biol. Chem., 193: 265-275 (1951).

[3] = system: P(40) particulate fraction of Methylosinus sp. (CRL-15, NRRL B-11,202); test: Substrate competition: effect of methane on propylene epoxidation; assay type: biochemical; conditions: 30° C.
Protocol: as §1, §2
The hydroxylation of methane and the epoxidation of propylene by particulate fractions of methane-utilizing bacteria required oxygen and NADH. The question of whether the same or a similar enzyme was involved in the oxidation of both substrates was examined by substrate competition experiments. The experiment consisted of determining the effect of methane on the oxidation of propylene to propylene oxide by the P(40) particulate fraction of Methylosinus sp. (CRL-15, NRRL B-11,202).

[4] = target: T1, cell-free fractions of Methylococcus capsulatus (CRL M1, NRRL B-11,219) (Methylococcus capsulatus, UniProt G1UBD1+Q603F1+Q607G3); test: Epoxidation and hydroxylation activities in cell-free fractions; assay type: biochemical
T1 sequence (G1UBD1 33-414): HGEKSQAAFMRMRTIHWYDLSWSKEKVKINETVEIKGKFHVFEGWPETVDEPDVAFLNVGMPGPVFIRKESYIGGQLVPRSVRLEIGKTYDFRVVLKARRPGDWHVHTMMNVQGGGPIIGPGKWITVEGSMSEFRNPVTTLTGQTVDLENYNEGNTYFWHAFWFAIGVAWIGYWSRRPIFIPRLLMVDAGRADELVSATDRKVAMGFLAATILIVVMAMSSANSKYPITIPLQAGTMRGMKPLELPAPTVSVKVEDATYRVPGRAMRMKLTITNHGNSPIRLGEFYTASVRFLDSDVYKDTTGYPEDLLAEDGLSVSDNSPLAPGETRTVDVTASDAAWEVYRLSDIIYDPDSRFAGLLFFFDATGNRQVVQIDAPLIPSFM
T1 sequence (Q607G3 1-247): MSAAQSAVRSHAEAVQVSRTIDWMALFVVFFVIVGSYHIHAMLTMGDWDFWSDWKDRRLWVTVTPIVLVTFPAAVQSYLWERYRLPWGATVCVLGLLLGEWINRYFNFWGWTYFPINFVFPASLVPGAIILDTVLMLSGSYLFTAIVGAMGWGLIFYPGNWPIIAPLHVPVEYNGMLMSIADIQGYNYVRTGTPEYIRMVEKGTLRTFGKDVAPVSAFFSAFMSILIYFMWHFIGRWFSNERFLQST
T1 sequence (Q603F1 1-260): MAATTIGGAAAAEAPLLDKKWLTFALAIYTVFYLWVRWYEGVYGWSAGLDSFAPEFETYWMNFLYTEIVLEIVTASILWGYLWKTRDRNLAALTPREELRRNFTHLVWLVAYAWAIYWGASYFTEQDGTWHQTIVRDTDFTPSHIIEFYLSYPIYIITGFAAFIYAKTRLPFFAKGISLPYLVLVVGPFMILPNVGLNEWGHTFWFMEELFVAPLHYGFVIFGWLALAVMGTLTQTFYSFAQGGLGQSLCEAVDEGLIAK
Protocol: Cells of methane-grown Methylococcus capsulatus (CRL M1, NRRL B-11,219) were obtained by the method of Example 1. […] However, when the cells were disrupted by passing twice through a French pressure cell (1000 Kg. pressure), both activities were found in the crude extract after 10,000×g. centrifugation. All of the activity in the crude extract was collected as a particulate fraction by further centrifugation of the crude extract at 40,000×g. for 90 min. at 4° C.
^a The cells were disrupted by French Press as described above. NADH
[…] was added into the reaction mixture where indicated.
The amount of protein in the particulate fraction and the 40,000 ×
g. supernatant fraction used was 1 mg. and 2.5 mg., respectively. Each
assay contained 0.5 ml. reaction mixture.

[5] = particulate fraction (10,000 × g.-40,000 × g.), 1 mg. protein
[6] = supernatant fraction of 40,000 × g., 2.5 mg. protein

| SMILES | Conversion Rate to 1-Butanol ([1]; 3° C.) | Conversion Rate to 2-Butanol ([1]; 3° C.) | Conversion Rate to 2-Butanone ([1]; 3° C.) | Conversion Rate to n-butanol ([1]; 3° C.) | Conversion Rate to Methanol ([1]; 3° C.) | Oxidizing Activity (rate of oxidation) in cell fraction [2] | Propylene Oxide Produced [3] | Oxidation Rate [4, 5] | Oxidation Rate ([4]; particulate fraction + NADH) | Oxidation Rate ([4]; supernatant fraction + NADH) | Oxidation Rate [4, 6] | Conversion Rate to 2-Propanol ([1]; 3° C.) | Conversion Rate to Acetone ([1]; 3° C.) | Conversion Rate to Propanol ([1]; 3° C.) | Conversion Rate to 1-Propanol ([1]; 30° C.) |
| --- | --- | --- | --- | --- | --- | --- | --- | --- | --- | --- | --- | --- | --- | --- | --- |
| CCCC [Butane] | 0.3 μmoles/hr./mg./protein | 0.4 μmoles/hr./mg./protein | 0.1 μmoles/hr./mg./protein | 0.1 μmoles/hr./mg./protein |  |  |  |  |  |  |  |  |  |  |  |
| C [Methane] |  |  |  |  | 1.5 μmoles/hr./mg./protein | 0 μ moles of products formed per | 0 μmoles/hr./mg. protein | 500 nmoles/30 min/assay | 650 nmoles/30 min/assay | 0 nmoles/30 min/assay | 0 nmoles/30 min/assay |  |  |  |  |
| CCC [Propane] |  |  |  |  |  |  |  |  |  |  |  | 0.6 μmoles/hr./mg./protein | 0.2 μmoles/hr./mg./protein | 0.1 μmoles/hr./mg./protein | 0.4 μmoles/hr./mg./protein |
| C=CC [Propylene] |  |  |  |  |  | 0 μ moles of products formed per | 4.3 μmoles/hr./mg. protein | 750 nmoles/30 min/assay | 900 nmoles/30 min/assay | 0 nmoles/30 min/assay | 0 nmoles/30 min/assay |  |  |  |  |
